Entries after “also recorded” stand apart in the source; their conditions may differ.

The subject of one assay is bRXFP1. The assay can be described thus: cAMP production, HEK293T cells transiently transfected with bRXFP1. It is filed as cell-based, bovine. The note with it: for EC50: bRXFP1, transient transfection HEK293T, 20 min stimulation, cAMP by TRFIA, three-parameter non-linear regression, pRLN converted to nM assuming MW 6 kD and purity 85%, bINSL3 curve had not reached an asymptote at highest concentration; for stimulation of cAMP production: bRXFP1, within the range of concentration applied (Figure 9A). The text has this: (§1) Preliminary studies, prior to the publication of the bovine genome project, had employed heterologous RT-PCR primers, derived from human sequence information, together with RNA from selected bovine tissues. Initial sequence information obtained was subsequently fully confirmed by the bovine genome project, which is used here for reference. Having confirmed by RT-PCR the correct sequences for the full-length functional bRXFP1 and bRXFP2 transcripts, expression constructs were generated, whereby the signal peptides of the two receptor sequences were replaced by the signal peptide-encoding sequence from the bovine prolactin gene, together with an intermediate short FLAG sequence, exactly as used previously for the expression of the human RXFP1 and RXFP2, and other G-protein coupled receptors (Hsu et al., [2000], [2002]). The two final bovine constructs were generated from assembled multiple oligonucleotides (custom gene synthesis by GeneArt, Regensburg, Germany), their sequences confirmed, and inserted into the vector pcDNA3.1/Zeo(+) (Invitrogen) for expression.
(§2) For transfection, the Neon electroporation system (Invitrogen) was used: the bRXFP1 or bRXFP2 expression plasmids were mixed with HEK 293T cells in a ratio of ~0.2 μg DNA/50,000 cells/well (48-well plate), and pulsed at 1,300 V for 30 ms to transfect the DNA into the cells. Plasmids were allowed to express for 24 h with the transfected cells cultured in DMEM/F12 (1:1) at 37°C with 5% CO2. In parallel, HEK 293T cells which had been permanently transfected with human RXFP1 or human RXFP2 (Heng et al., [2008]) were plated at 50,000 cells/well in a 48-well plate, and cultured overnight in DMEM/F12 (1:1) with 10% bovine fetal serum, 2 mM L-glutamine and 1% Penicillin-Streptomycin at 37°C with 5% CO2.
(§3) For the transient and permanently transfected HEK 293T cells and the primary myometrial (6,000 cells/well) and theca cells (20,000 cells/well), after the initial pre-culture period (as above) medium was changed and supplemented or not with 1 mM IBMX (3-isobutyl-1-methylxanthine; Sigma) as indicated (30 min for myometrial cells, 10 min for theca cells). Following this pre-incubation, cells were supplemented or not with various peptides, also as indicated in the figure legends, and incubation continued for a further 20 min. Total cAMP was extracted from the combined cells and culture medium from each well and measured by time-resolved fluorescent immunoassay (TRFIA) as described in Anand-Ivell et al. ([2007]). cAMP production by the transfected HEK 293 cells was measured directly (range1–243 pmol/ml); cAMP from primary myometrial and theca cells made use of the more sensitive TRFIA employing sample acetylation (detection range 0.04–9.72 pmol/ml).
(§4) All data were analyzed and plotted using GraphPad Prism 6. The EC50 values were calculated by non-linear regression of log (agonist) against response (three parameter). All column data were analyzed by ANOVA followed by Neuman-Keuls post-hoc test.

The test system of another assay is hRXFP1. The assay can be described thus: cAMP production, HEK 293T cells permanently transfected with hRXFP1. It is filed as cell-based, human. The following applies: hRXFP1, permanently transfected HEK 293T, 20 min stimulation, cAMP by TRFIA, three-parameter non-linear regression, pRLN converted to nM assuming MW 6 kD and purity 85%. The method, then: as §2, §3, §4

For a further assay, the system named is bRXFP2. Description: cAMP production, HEK293T cells transiently transfected with bRXFP2. The following applies: for stimulation of cAMP production: bRXFP2 (Figure 9B, Table 1); for EC50: bRXFP2, transient transfection HEK293T, 20 min stimulation, cAMP by TRFIA, three-parameter non-linear regression, pRLN converted to nM assuming MW 6 kD and purity 85%. It is filed as cell-based, bovine.
Source text: as §1, §2, §3, §4

For the next assay, the system named is hRXFP2. The assay can be described thus: cAMP production, HEK 293T cells permanently transfected with hRXFP2. It counts as cell-based, human. The following applies: for EC50: hRXFP2, permanently transfected HEK 293T, 20 min stimulation, cAMP by TRFIA, three-parameter non-linear regression, pRLN converted to nM assuming MW 6 kD and purity 85%, its curve had not reached an asymptote at highest concentration. As for the experimental part: as §2, §3, §4

For the next assay, the system named is bovine myometrial cells. The assay can be described thus: cAMP production in primary bovine myometrial cells. It is filed as cell-based. The following applies: 20 min, 1 mM IBMX (Figure 8A). As for the experimental part: Bovine tissues were obtained from the local slaughterhouse. Tissue collection was in accordance with German, British and European laws and provisions for ethical regulation. Cumulus-oocyte complexes (COCs) were collected and categorized exactly as in Janowski et al. ([2012]). For oocyte RNA preparation, COCs were mechanically denuded using a glass pipette followed by a 2 min trypsin incubation (1x Trypsin-EDTA solution; T4174; Sigma, Deisenhofen, Germany) to remove residual cumulus cells, then frozen at −80°C. Bovine myometrial cells were prepared from excised uteri exactly as in Heng et al. ([2008]). The isolated myometrial cells were plated at 6,000 cells/well in a 48-well plate and cultured at 37°C with 5% CO2 for 5 days before stimulation. Bovine ovaries without an obvious corpus luteum were selected for the isolation of granulosa and theca interna cells from mid-phase antral follicles (ca. 6–10 mm diameter) using standard procedures (Holtorf et al., [1989]; Bathgate et al., [1999]). Follicular fluid, including COCs and granulosa cells, was aspirated from the follicles, and collected in granulosa culture medium (DMEM/F-12 (1:1) with 1% bovine fetal serum, 1% antibiotic-antimycotic (ABAM), 2 mM L-glutamine). After manually removing the COCs, the granulosa cells were harvested by centrifugation (150 g, 10 min) and rinsed once with culture medium as above. Four to six millimeters follicles were obtained by dissection. The theca interna layer of mid-phase antral follicles was peeled off and digested with collagenase IV (1 mg/ml) in Medium 199, including trypsin inhibitor (100 μg/ml) at 38°C for 1 h. The isolated theca cells were collected and washed in Medium 199 with 1% ABAM. […]
as §3, with “Following this pre-incubation, cells were supplemented or not with various peptides, also as indicated in the figure legends, and incubation continued for a further 20 min.” left out
as §4

A further assay relates to beef cows. The note with it: applied locally or systemically to beef cows at term; ref Musah et al., 1987; cited from earlier work. The text has this:
(§5) For many years there has been a controversy surrounding the existence or not of relaxin in ruminants, including cattle, sheep, and goats (Hartung et al., [1995]). A RLN2 homologous molecule is definitely expressed at the mRNA and/or protein levels in related ungulates, such as pigs, camels, llamas, and horses (James et al., [1977]; Stewart et al., [1991]; Bravo et al., [1996]; Hombach-Klonisch et al., [2000]; ncbi database: www-ncbi-nlm-nih-gov).

In another assay the test system is bovine luteal cells. The note with it: bovine luteal cells in culture; ref Musah et al., 1990; cited from earlier work.
Source text: as §5

Another assay deals with bovine sperm. The following applies: ref Miah et al., 2011; cited from earlier work.
Source text: as §5

A further assay deals with RXFP1. The following applies: ref Bathgate et al., 2006; cited from earlier work. The text has this: The relaxin family of peptide hormones includes, besides relaxin (RLN2), also relaxin 3 (RLN3), insulin-like peptide 3 (INSL3), INSL5, and INSL6. Additionally, within higher primates and humans there is RLN1 and INSL4. […] RLN2 and INSL3 on the other hand are usually expressed in reproductive tissues of both sexes and ...

Another assay relates to bovine theca cells. The assay can be described thus: cAMP production in primary bovine theca cells. It is filed as cell-based. The following applies: 20 min, 1 mM IBMX (Figure 8B,C). As for the experimental part:
Bovine tissues were obtained from the local slaughterhouse. Tissue collection was in accordance with German, British and European laws and provisions for ethical regulation. Cumulus-oocyte complexes (COCs) were collected and categorized exactly as in Janowski et al. ([2012]). For oocyte RNA preparation, COCs were mechanically denuded using a glass pipette followed by a 2 min trypsin incubation (1x Trypsin-EDTA solution; T4174; Sigma, Deisenhofen, Germany) to remove residual cumulus cells, then frozen at −80°C. Bovine myometrial cells were prepared from excised uteri exactly as in Heng et al. ([2008]). […]
as §3, with “Following this pre-incubation, cells were supplemented or not with various peptides, also as indicated in the figure legends, and incubation continued for a further 20 min.” left out, “pmol/ml). […]” for “pmol/ml).”

Regarding porcine relaxin [pRLN], the EC50 is 10.8 nM in the assay with bRXFP1; 0.4 nM in the assay with hRXFP1; less than 1 nM in the assay with hRXFP1 (listed as porcine RLN); 10.5 nM in the assay with bRXFP2; greater than 12 nM in the assay on hRXFP2. For the same molecule, the “stimulation of cAMP production” value is given as “showed any stimulation within the range of concentration applied” in the assay with bRXFP1 and “could stimulate at very high concentration” in the assay with bRXFP2. Moreover, the cAMP production entry with bovine myometrial cells is “significant stimulation was observed at all concentrations applied”. Moreover, in the assay with beef cows, the “softening and dilatation response” value is “elicited a classic softening and dilatation response, thereby influencing calving period”. Moreover, the oxytocin production entry with bovine luteal cells was “significantly suppressed oxytocin production”.
With recombinant human relaxin [rhRLN], the EC50 is 48.7 nM in the assay on bRXFP1; 0.9 nM in the assay on hRXFP1; less than 1 nM in the assay with hRXFP1 (listed as human RLN); 27.3 nM in the assay with bRXFP2; 53.9 nM in the assay with hRXFP2. The figures for the “stimulation of cAMP production” value in the assay on bRXFP1 and in the assay on bRXFP2 were “showed any stimulation within the range of concentration applied” and “could stimulate at very high concentration”, respectively.
As for relaxin, in the assay on bovine myometrial cells, the cAMP production result is “significant increase in cAMP”. The sperm functional parameters result in the assay with bovine sperm is reported as “significantly to affect bovine sperm functional parameters”.
relaxin 3 [hRLN3]: the EC50 was determined as 97.9 nM in the assay on bRXFP1 and 14.6 nM in the assay on hRXFP1. Further, the “stimulation of cAMP production” value with bRXFP1 is listed as “showed any stimulation within the range of concentration applied”; in the assay with bRXFP2 it was “unable to stimulate”; in the assay on bRXFP2 (listed as RLN3), “but not RLN3, could stimulate at very high concentration”; in the assay on hRXFP2 (hRXFP2 (Table 1)) it was “unable to stimulate”. In the assay on RXFP1, the “affinity at RXFP1” value was “reduced affinity”.

B1: bovine INSL3 (protein, UniProt O77801 22-66; O77801 27-66; O77801 107-132, looked up)
Insulin-like 3 B' chain: GPAAAQEAPEKLCGHHFVRALVRLCGGPRWSSEEDGRPVAGGDRE
Insulin-like 3 B chain: QEAPEKLCGHHFVRALVRLCGGPRWSSEEDGRPVAGGDRE
Insulin-like 3 A chain: ATAINPARHCCLSGCTRQDLLTLCPH
notes: bovine insulin-like peptide 3, cognate ligand of bovine RXFP2
In the case of B1, the “stimulation of cAMP production” value in the assay on bRXFP2 was “effective at low concentrations”. Further, the results for the concentration giving a half-maximal response (EC50) in the assay on bRXFP2, in the assay with bRXFP2 (listed as bovine INSL3) and in the assay with hRXFP2 were 0.7 nM, less than 1 nM and 0.6 nM, respectively. Also, the cAMP production entry with bovine myometrial cells (listed as INSL3) was “significant increase in cAMP”; in the assay with bovine myometrial cells (listed as bovine INSL3) it was “significant stimulation was observed at all concentrations applied”; in the assay on bovine theca cells, “dose-dependent increase in cAMP; also recorded: able significantly to stimulate cAMP production in a dose-dependent manner”.

B2: human INSL3 (protein, UniProt P51460 21-55; P51460 106-131, looked up)
Insulin-like 3 B chain: LGPAPTPEMREKLCGHHFVRALVRVCGGPRWSTEA
Insulin-like 3 A chain: AAATNPARYCCLSGCTQQDLLTLCPY
notes: human insulin-like peptide 3
Consider B2, for which the EC50 in the assay on bRXFP2 was determined as 0.6 nM; in the assay on hRXFP2, 0.7 nM.
